Data as given in publication PMC7726444 (Frontiers in Pharmacology, 2020).

Legend:
WT human PAH = target: T1, WT human PAH (Homo sapiens, UniProt P00439); test: PAH enzymatic activity assay (selectivity); format: biochemical; settings: up to a concentration of 100 µM
T1 construct: made in house
T1 sequence (P00439 1-452): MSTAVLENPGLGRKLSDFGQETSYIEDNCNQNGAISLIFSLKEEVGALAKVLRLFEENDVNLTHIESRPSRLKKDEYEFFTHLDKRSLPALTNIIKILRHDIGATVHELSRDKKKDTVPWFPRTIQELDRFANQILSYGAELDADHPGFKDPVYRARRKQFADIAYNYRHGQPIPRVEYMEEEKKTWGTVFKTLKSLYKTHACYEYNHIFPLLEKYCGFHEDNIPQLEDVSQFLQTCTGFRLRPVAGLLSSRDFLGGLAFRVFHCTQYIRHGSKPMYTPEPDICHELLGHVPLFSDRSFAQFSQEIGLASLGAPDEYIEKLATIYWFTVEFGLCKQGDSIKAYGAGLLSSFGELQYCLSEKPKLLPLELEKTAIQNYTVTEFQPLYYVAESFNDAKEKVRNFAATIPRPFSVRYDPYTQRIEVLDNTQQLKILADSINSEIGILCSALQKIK
Procedure: Full-length WT TPH1 and TPH2 were expressed as N-terminal six-His-maltose-binding protein fusion proteins in pETM-41 and were cleaved and purified as described previously ([McKinney et al., 2004]; [Winge et al., 2007]). Human WT PAH and TH were expressed and isolated as described previously ([Flydal et al., 2012]; [Bezem et al., 2016]).
Purified WT human TPH2, PAH, and TH were used for this purpose, and the activity assays for each enzyme was performed as described previously ([Haavik and Flatmark, 1980]; [Winge et al., 2007]; [Aubi et al., 2015]; [Bezem et al., 2016]).

WT full-length TPH2 = target: T2, WT full-length TPH2 (Homo sapiens, UniProt Q8IWU9); test: Tryptophan hydroxylase enzymatic activity assay, WT full-length TPH2; format: biochemical; settings: mean (95% confidence interval), three experiments in duplicate
T2 construct: both the doubly truncated TPH1 protein and WT full-length TPH2 protein; made in house
T2 sequence (Q8IWU9 1-490): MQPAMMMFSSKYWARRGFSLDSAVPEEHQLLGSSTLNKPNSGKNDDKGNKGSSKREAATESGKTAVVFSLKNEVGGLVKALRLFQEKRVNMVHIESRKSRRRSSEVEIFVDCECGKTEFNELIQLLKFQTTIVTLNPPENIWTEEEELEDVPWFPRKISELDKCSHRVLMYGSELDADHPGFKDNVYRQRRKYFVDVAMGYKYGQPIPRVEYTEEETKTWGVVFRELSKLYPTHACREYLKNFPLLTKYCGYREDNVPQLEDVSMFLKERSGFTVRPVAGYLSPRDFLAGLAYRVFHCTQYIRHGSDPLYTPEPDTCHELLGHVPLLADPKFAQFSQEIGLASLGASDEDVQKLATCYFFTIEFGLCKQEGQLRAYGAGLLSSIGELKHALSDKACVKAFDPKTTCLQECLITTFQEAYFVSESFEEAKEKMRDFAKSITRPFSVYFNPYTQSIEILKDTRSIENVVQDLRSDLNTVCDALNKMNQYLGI

inhibition of PAH (WT human PAH): no inhibition | IC50 (WT full-length TPH2): 4.3 µM
Compound: COc1ccc2[nH]c([S+]([O-])Cc3ncc(C)c(OC)c3C)nc2c1 (centres unmarked) [Omeprazole]
